Columns and labels:
[1] = system: platelet-rich plasma of healthy test subjects; test: Antithrombotic activity: collagen-induced thrombocyte aggregation (BORN and CROSS method); format: cell-based; details: Homo sapiens, 10 min, plasma incubated for 10 minutes with the substance at 37° C., read-out: EC50 (50% change in the "optical density" in terms of an inhibition of aggregation)
Experimental: Thrombocyte aggregation is measured using the BORN and CROSS method (J. Physiol. 170, 397 (1964)) in the platelet-rich plasma of healthy test subjects. To inhibit coagulation, 3.14% sodium citrate is added to the blood in a ratio by volume of 1:10.
The pattern of the decrease in optical density of the platelet suspension is photometrically measured and recorded after the addition of aggregation-inducing substance. The rate of aggregation is determined from the angle of inclination of the density curve. The point on the curve at which there is maximum transmittance is used to calculate the "optical density".
The quantity of collagen is kept as small as possible but sufficient to produce an irreversible reaction curve. The standard commercial collagen produced by Hormonchemie of Munich is used. Before the addition of collagen, the plasma is incubated for 10 minutes with the substance at 37° C.
From the measurements obtained, an EC50 is determined graphically, showing a 50% change in the "optical density" in terms of an inhibition of aggregation.

mice = test: Acute toxicity after oral administration of a single dose; format: in vivo; details: observation period 14 days; for animals died (mortality): single dose 500 mg/kg; for Approximate acute toxicity: single dose, groups of 10
Experimental: The acute toxicity of the substances being tested was determined approximately in groups of 10 mice after oral administration of a single dose (observation period 14 days): […]

| SMILES | EC50 [1] [nM] | animals died (mortality) (mice) | Approximate acute toxicity (mice) [mg/kg] |
| --- | --- | --- | --- |
| Cn1c(CCNS(=O)(=O)c2ccc(F)cc2)ccc1C(=O)CCC(=O)O [Substance D, 4-[2-(2-(p-Fluorobenzenesulphonylamino)-ethyl)-1-methylpyrrol-5-yl]-4-oxybutyric acid] | 360 | 0 out of 10 animals | 500 |
| Cn1c(CCNS(=O)(=O)c2ccccc2)ccc1C1=NNC(=O)CC1 [Substance E, 6-[2-(2-Benzenesulphonylamino-ethyl)-1-methylpyrrol-5-yl]-4,5-dihydro-3(2H)-pyridazinone] | 2900 | 0 out of 10 animals | 500 |
| Cn1c(CCNS(=O)(=O)c2cccs2)ccc1C(=O)CCC(=O)O [Substance C, 4-[2-(2-thiophen-2-yl-sulphonylamino-ethyl)-1-methylpyrrol-5-yl]-4-oxybutyric acid] | 390 | 0 out of 10 animals | 500 |
| Cn1c(CCNS(=O)(=O)c2ccccc2)ccc1C(=O)CCC(=O)O [Substance A, 4-[2-(2-Benzenesulphonylamino-ethyl)-1-methylpyrrol-5-yl]-4-oxybutyric acid] | 3500 | 0 out of 10 animals | 500 |
| Cn1c(CCNS(=O)(=O)c2ccc(Cl)cc2)ccc1C(=O)CCC(=O)O [Substance B, 4-[2-(2-(p-chlorobenzenesulphonylamino)-ethyl)-1-methylpyrrol-5-yl]-4-oxybutyric acid] | 400 | 0 out of 10 animals | 500 |
